Literature values, collected in patent US20060051384A1, “Antiseptic compositions and methods of use” (priority 2004, published 2006).

Test system: methicillin resistant staphylococcus aureus

For povidone-iodine, the “decrease of activity on addition of nasal secretions” value is listed as 80-90 wt %.
